Data: PMC7321103, “In Vitro Metabolic Transformation of Pharmaceuticals by Hepatic S9 Fractions from Common Carp (Cyprinus carpio)” (Molecules, 2020)
Where two headings read alike, the source gives them in different places.

Key:
[1] = test system: common carp hepatic S9 fraction; assay: Metabolite formation in common carp hepatic S9 fraction (not induced and BNF induced); type: in vitro ADME, common carp (Cyprinus carpio); conditions: for Metabolites Concentration, BNF Fish S9: carp induced with 50 mg/kg BNF; for Metabolites Concentration, BNF Fish S9 / Metabolites Concentration, Fish S9: 2 µM parent pharmaceutical, 1 h, 21 °C; for Metabolites Concentration, Fish S9: not induced carp, 1 mg protein
Procedure: Fish. Fish were collected from a fishpond with a low concentration level of pharmaceuticals (305-880 ng/POCIS). Thus, fish were stocked in the pond for 1 year with a natural photoperiod. The fish were allowed to eat and swim freely in the pond without interaction with humans and avoiding stress conditions. In total, 1-year-old common […] = 12) weighing 695 ± 116 g (mean ± standard deviation) and length 330 ± 19 mm were collected during spring 2018. Additionally, β-naphtaflavone (BNF) was administrated into four fish at levels of 50 mg/kg of BNF in corn oil. Following administration, individuals were kept in a separate aquaria for 48 h, in order to achieve CYP1A1 induction. The fish were then sacrificed according to the ethical rules of the EU harmonized Animal Welfare Act of the Czech Republic. The unit is licensed (No. 53100/2013-MZE-17214), according to the Czech National Directive (the Law against Animal Cruelty, No. 246/1992). Before sampling, fish were anesthetized in an ice bath, and their spinal cords were immediately cut. Fish was bloodless and hepatic tissues were collected and stored at -80 °C before use for the preparation of S9 fraction. Hepatic tissue (approx. 1.2 g) of twelve individual common […] two individual sheep were homogenized in 10 mM Tris-HCl buffer, pH 7.4, containing 250 mM sucrose separately using an T-25 Ultra Turrax homogenizer Ika (Staufen, Germany) followed by centrifugation at 10,000× g for 15 min at 4 °C to obtain S9 fractions. The protein concentration in S9 fractions was determined by the colorimetric method according to Smith et al. at 595 nm. The S9 fractions were diluted to 10 mg/mL protein content. To account for the gender effect, four piscine S9 fractions were combined in one pool with the same ratio of males/females (1:1). The incubations were performed using three S9 pools from common carp. One pool was prepared from ovine S9 fractions. […] According to Hou et al. […] The concentrations of the parent compound and its main metabolites (metoprolol acid, N-desmethylcitalopram, norsertraline, and O-desmethylvenlafaxine) were determined by LC HRMS (Thermo Fisher Scientific, San Jose, CA, USA). The chromatographic separation was performed on a Hypersil Gold aQ analytical column (50 × 2.1 mm; 5 μm particles, Thermo Fisher Scientific). […] A heated electrospray ionization (HESI) source was used for the ionization of the target compounds with a spray voltage of 3.5 kV and nitrogen as the sheath gas (40 arbitrary units), auxiliary gas (10 arbitrary units), and collision gas. The full scan mode with high resolution (70000 FWHM) in range 100-750 m/z was used with the AGC target 3e6, and the maximum filling time 50 ms. Data acquisition was performed with Xcalibur 4.3 Software, and data processing was performed using TraceFinder 3.3 Software (both Thermo Fisher Scientific, San Jose, CA, USA). Internal standard and matrix matching standard methods were used for the quantification of target analytes.

[2] = Control incubation of pharmaceutical without S9 fraction; conditions: 2 µM parent pharmaceutical, no S9, 1 h
Procedure: To investigate the formation of metabolites, one concentration of pharmaceutical (2 μM) was incubated with 1 mg of protein in piscine or ovine S9 fraction, 1 mM NADPH, and 0.3 mM UDPGA in a potassium phosphate buffer (50 mM, 7.4 pH) (Table 2). The total volume of each incubation was 0.5 mL. The incubation mixture was vortexed and incubated for 1 h in a water bath (at 21 °C for fish and 37 °C for ovine). Then, the reaction was stopped by the addition of 0.5 mL ice-cold methanol, vortexed, and centrifuged at 10,000× g for 10 min. […] Sheep hepatic S9 fraction was used as a positive control, because sheep S9 fractions are known to metabolise the studied compounds. […] The supernatant was filtrated (0.45 μm regenerated cellulose filter) and the internal standard for chemical analyses was added. […] S9 fractions with TNBP were incubated under the same conditions as other pharmaceuticals.

[3] = test system: sheep hepatic S9 fraction; assay: Metabolite formation in sheep hepatic S9 fraction; type: in vitro ADME; conditions: 2 µM parent pharmaceutical, 1 mg protein, 1 h, 37 °C
Procedure: Sheep. Hepatic tissue from one male and one female Suffolk sheep (age, 2 years; weight 70-80 kg) were collected at a slaughterhouse in Vodňany town, Czech Republic, and stored at -80 °C. Sheep is a relatively new animal model, which has started to be used in veterinarian investigations related to drug-drug interactions, as well as for effective therapy and the limitation of drug-resistance development. Sheep phase I biotransformation enzymes, including CYPs-dependent metabolic activities in sheep liver, were already characterized by Szotakova et al., Maté et al. and Stuchlíková et al.. The use of the S9 fraction from sheep hepatic tissue could represent the mammalian metabolic system in relation to selected pharmaceuticals. […] The protein concentration in S9 fractions was determined by the colorimetric method according to Smith et al. at 595 nm. […] The concentrations of the parent compound and its main metabolites (metoprolol acid, N-desmethylcitalopram, norsertraline, and O-desmethylvenlafaxine) were determined by LC HRMS (Thermo Fisher Scientific, San Jose, CA, USA). […] Internal standard and matrix matching standard methods were used for the quantification of target analytes.

human hepatic microsomes = test system: human hepatic microsomes; design: method as in PMID 10494454; conditions: cited from earlier work
[4] = design: method as in PMID 29729738; conditions: fish from pond receiving WWTP water; cited from earlier work
[5] = test system: common carp hepatic S9 fraction; assay: Kinetics of N-desmethylcitalopram formation from citalopram in common carp S9; type: in vitro ADME, common carp (Cyprinus carpio); conditions: Michaelis-Menten fit, citalopram 0.01-100 μM
Procedure: (§1) Kinetic analysis using multiple substrate concentrations was conducted only with citalopram using the same procedure as above-described. The substrate concentrations were 0.01, 0.03, 0.1, 1, 10, 50, 75, and 100 μM of citalopram.
(§2) The data were analyzed using non-linear regression analysis (GraphPad Prism version 4.0 for Windows, GraphPad Software, San Diego, CA, USA). The data were fitted to the Michaelis-Menten equation and two enzyme models. The goodness of fit was assessed by comparison of the coefficient of determination (r^2). Visual analysis of Eadie-Hofstee plots was used to estimate whether one or more enzymes participate in the reaction.

[6] = as above; type: in vitro ADME, common carp (Cyprinus carpio); conditions: common carp (Cyprinus carpio), hepatic S9 fraction, Michaelis-Menten fit, citalopram 0.01-100 μM
Procedure: as §1, §2

CYP1A1 = assay: Inhibition of N-desmethylcitalopram formation by ellipticine in common carp S9; type: biochemical, common carp (Cyprinus carpio); conditions: citalopram 5 μM
Procedure: Ellipticine (a specific inhibitor of mammalian and piscine CYP1A1) was used to investigate if CYP1A1 was responsible for metabolite formation. Incubations were performed only with citalopram. Three concentrations of ellipticine were used in the final incubations: 0.125, 1.25, and 12.5 μM. The choice of these concentrations was based on the previous results. The degree of inhibition was assessed by comparison of metabolite formation in the presence and absence of inhibitor. The incubation without inhibitor contained the same amount of methanol as in the incubations with inhibitor (0.5% from total incubation volume).

CYP3A-like = test system: CYP3A-like; design: method as in PMID 29704845; conditions: rainbow trout microsomal fraction; cited from earlier work
CYP1A = test system: CYP1A; design: method as in PMID 29704845; conditions: rainbow trout microsomal fraction; cited from earlier work

## CC(C)NCC(O)COc1ccc(CC(=O)O)cc1 (stereo not shown) [Metoprolol acid, metoprolol acid]
[1]
  Metabolite formation, fold reduction in induced fish vs not induced S9 fraction: 3.4 fold

## CNCCCC1(c2ccc(F)cc2)OCc2cc(C#N)ccc21 (stereo not shown) [N-desmethylcitalopram]
[2]
  Metabolites Concentration, Control (without S9): <LOQ
[3]
  Metabolites Concentration, Sheep S9: 2309 pmol/min/mg
[1]; BNF induced vs not induced carp S9
  Metabolite formation, fold higher in induced fish than in not induced S9 fraction: 5.3 fold
[1]
  Metabolites Concentration, BNF Fish S9: 1557 pmol/min/mg
  Metabolites Concentration, Fish S9: 295 pmol/min/mg
Human hepatic microsomes; monophasic model
  Vmax for N-desmethylcitalopram, monophasic model: 183 to 281 pmol/min/mg
[4]
  Average concentration in hepatic tissue of common carp: 2.6 ± 1.4 ng/g wet weight
[5]
  Vmax of N-desmethylcitalopram formation: 1781 ± 90 pmol/min/mg
[6]
  Km: 29.7 ± 4.6 µM

## N[C@H]1CC[C@@H](c2ccc(Cl)c(Cl)c2)c2ccccc21 [Norsertraline, norsertraline]
[1]
  Metabolite formation, fold higher in induced fish than in not induced S9 fraction: 1.7 fold

## CN(C)CC(c1ccc(O)cc1)C1(O)CCCCC1 (stereo not shown) [O-desmethylvenlafaxine]
[2]
  Metabolites Concentration, Control (without S9): <LOQ
[3]
  Metabolites Concentration, Sheep S9: 823 pmol/min/mg
[1]
  Metabolites Concentration, BNF Fish S9: <LOQ
  Metabolites Concentration, Fish S9: <LOQ

## CN(C)CCCC1(c2ccc(F)cc2)OCc2cc(C#N)ccc21 (stereo not shown) [citalopram, Citalopram]
Human hepatic microsomes; biphasic model
  Vmax of citalopram N-demethylation, first enzyme: 25 pmol/min/mg
  Vmax of citalopram N-demethylation, second enzyme: 158 pmol/min/mg
Human hepatic microsomes; biphasic model, read-out: Km of citalopram N-demethylation, first enzyme
  Km: 17.3 µM
Human hepatic microsomes; biphasic model, read-out: Km of citalopram N-demethylation, second enzyme
  Km: 185 µM
[4]
  Average concentration in hepatic tissue of common carp: 3.1 ± 2.9 ng/g wet weight

## Cc1c2ccncc2c(C)c2c1[nH]c1ccccc12 [ellipticine]
CYP1A1; 0.125 μM ellipticine
  Reduction of N-desmethylcitalopram formation: 30 ± 10%
CYP1A1; 1.25 μM ellipticine
  Inhibition of N-desmethylcitalopram formation: completely inhibited
CYP1A1; 12.5 μM ellipticine
  Inhibition of N-desmethylcitalopram formation: completely inhibited

## COc1ccc(C(CN(C)C)C2(O)CCCCC2)cc1 (stereo not shown) [venlafaxine]
CYP3A-like
  Effect on BFCOD activity: did not alter
CYP1A
  Effect on EROD activity: did not alter
